Consider 2 compounds from patent publication US20140142168A1, “METHODS AND PHARMACEUTICAL COMPOSITIONS FOR THE TREATMENT OF HORMONE-REFRACTORY PROSTATE CANCERS” (CENTRE JEAN PERRIN, priority 2011, published 2014).

SMILES strings stand for the structures. Like-named read-outs stand apart in the source and are kept apart here.

Data set [1] is described as follows: Blood levels after administration. It counts as in vivo. The settings on record: human. The protocol:
It was deduced from the investigator data that 1 h after administration of 75 mg/m2 of DTX, blood levels of DTX can reach 3.75 μM.

The subject of a further data set is PC3 cells. Put plainly: PC3 survival at end of treatment. The format is cell-based, human. The conditions noted are these: 2 h 3.75 μM DTX then 70 h drug-free medium, with or without 2 days of repeated 0.25 μM curcumin pretreatment. The protocol: The PC3 line is a human p-53 defective HRPC line displaying high SphK1 activity. To mimic the effect of treatment, 10,000 PC3 cells were seeded in each well of 24-well plates and maintained in DMEM containing 10% FBS (complete medium) overnight. […] Indeed, in these experiences PC3 cells were treated the first day for 2 h at 7 h AM and maintained in DFM until 12 h AM (5h). […] As previously, the cells were maintained in DFM for 70 h in DFM after DTX treatment.
PC3 survival was determined at the end of treatment 1 and 3. Telomerase activity was determined in survived cells by Trap assay at the end of treatment 1, 2 and 3.

For the next data set, the system named is patients with HRPC. The settings on record: docetaxel-treated patients, reference randomized study; cited from earlier work.

For `CC(=O)O[C@@]12CO[C@@H]1C[C@H](O)[C@@]1(C)C(=O)[C@H](O)C3=C(C)[C@@H](OC(=O)[C@H](O)[C@@H](NC(=O)OC(C)(C)C)c4ccccc4)C[C@@](O)([C@@H](OC(=O)c4ccccc4)[C@H]21)C3(C)C` [Docetaxel, (2R,3S)-N-carboxy-3-phenylisoserine, N-tert-butyl ester, 13-ester with 5, 20-epoxy-1,2,4,7, 10, 13-hexahydroxytax-11-en-9-one 4-acetate 2-benzoate, trihydrate], the concentration at 1 h in data set [1] (blood, intravenous, 1 h after administration of 75 mg/m2, deduced from the investigator data, read-out: blood levels of DTX) was 3750 nM. Also, the “number of survived cells” value in the data set with PC3 cells stood at 90±5%. In the data set on patients with HRPC, the PSA response is given as 45% and the objective tumor response is 12%.

`COc1cc(/C=C/C(=O)CC(=O)/C=C/c2ccc(O)c(OC)c2)ccc1O` [curcumin, (1E,6E)-1,7-bis (4-hydroxy-3-methoxyphenyl)-1,6-heptadiene-3 ,5-dione] returned a concentration at 1 h in data set [1] (in vivo) of 100 to 450 nM.
